This is an account of results in US20150344427A1 (EPIZYME, INC., priority 2012, published 2015).

One experiment relates to WSU-DLCL2 cells. In words: Cell Proliferation Analysis, WSU-DLCL2. Format: cell-based. The settings on record: Homo sapiens, WSUDLCL2, 144 h, 6 days, Cell Titer Glo. An excerpt: WSU-DLCL2 suspension cells were purchased from DSMZ (German Collection of Microorganisms and Cell Cultures, Braunschweig, Germany). RPMI/Glutamax Medium, Penicillin-Streptomycin, Heat Inactivated Fetal Bovine Serum were purchased from Life Technologies, Grand Island, N.Y., USA. V-bottom polypropylene 384-well plates were purchased from Greiner Bio-One, Monroe, N.C., USA. Cell culture 384-well white opaque plates were purchased from Perkin Elmer, Waltham, Mass., USA. Cell-Titer Glo® was purchased from Promega Corporation, Madison, Wis., USA. SpectraMax M5 plate reader was purchased from Molecular Devices LLC, Sunnyvale, Calif., USA.
WSU-DLCL2 suspension cells were maintained in growth medium (RPMI 1640 supplemented with 10% v/v heat inactivated fetal bovine serum and cultured at 37° C. under 5% CO2. Under assay conditions, cells were incubated in Assay Medium (RPMI 1640 supplemented with 20% v/v heat inactivated fetal bovine serum and 100 units/mL penicillin-streptomycin) at 37° C. under 5% CO2.
For the assessment of the effect of compounds on the proliferation of the WSU-DLCL2 cell line, exponentially growing cells were plated in 384-well white opaque plates at a density of 1250 cell/ml in a final volume of 50 μl of assay medium. A compound source plate was prepared by performing triplicate nine-point 3-fold serial dilutions in DMSO, beginning at 10 mM (final top concentration of compound in the assay was 20 μM and the DMSO was 0.2%). A 100 nL aliquot from the compound stock plate was added to its respective well in the cell plate. […] After addition of compounds, assay plates were incubated for 6 days at 37° C., 5% CO2, relative humidity >90% for 6 days. Cell viability was measured by quantization of ATP present in the cell cultures, adding 35 μl of Cell Titer Glo® reagent to the cell plates. Luminescence was read in the SpectraMax M5. The concentration inhibiting cell viability by 50% was determined using a 4-parametric fit of the normalized dose response curves.
In general terms: In ATP-based viability assays light output follows the ATP content of the culture.

Experiment [1] concerns the target T1, EZH2 Y641F mutant (PRC2 enzyme) (Homo sapiens, UniProt Q15910, Y641F).
T1 construct: made in house; host or cells: Spodoptera frugiperda (sf9) cells, baculovirus
In words: PRC2 enzyme assay on peptide substrate, EZH2 Y641F mutant. Type of experiment: biochemical. Conditions: Y641F mutant PRC2 enzyme 4 nM, H3K27me2 peptide, 3H-SAM Flashplate. The text has this:
General Materials. S-adenosylmethionine (SAM), S-adenosylhomocyteine (SAH), bicine, KCl, Tween20, dimethylsulfoxide (DMSO) and bovine skin gelatin (BSG) were purchased from Sigma-Aldrich at the highest level of purity possible. Dithiothreitol (DTT) was purchased from EMD. ^3H-SAM was purchased from American Radiolabeled Chemicals with a specific activity of 80 Ci/mmol. 384-well streptavidin Flashplates were purchased from PerkinElmer.
Peptides representative of human histone H3 residues 21-44 containing either an unmodified lysine 27 (H3K27me0) or dimethylated lysine 27 (H3K27me2) were synthesized with a C-terminal G(K-biotin) linker-affinity tag motif and a C-terminal amide cap by 21st Century Biochemicals. […] The sequences are listed below.
Human PRC2 enzymes were purified as 4-component enzyme complexes co-expressed in Spodoptera frugiperda (sf9) cells using a baculovirus expression system. […] The EED subunit contained an N-terminal FLAG tag that was used to purify the entire 4-component complex from sf9 cell lysates.
The assays were all performed in a buffer consisting of 20 mM bicine (pH=7.6), 0.5 mM DTT, 0.005% BSG and 0.002% Tween20, prepared on the day of use. Compounds in 100% DMSO (1 μL) were spotted into polypropylene 384-well V-bottom plates (Greiner) using a Platemate 2×3 outfitted with a 384-channel pipet head (Thermo). DMSO (1 μL) was added to columns 11, 12, 23, 24, rows A-H for the maximum signal control, and SAH, a known product and inhibitor of PRC2 (1 μL) was added to columns 11,12, 23, 24, rows I-P for the minimum signal control. A cocktail (40 μL) containing the wild-type PRC2 enzyme and H3K27me0 peptide or any of the Y641 mutant enzymes and H3K27me2 peptide was added by Multidrop Combi (Thermo). The compounds were allowed to incubate with PRC2 for 30 min at 25° C., then a cocktail (10 μL) containing a mixture of non-radioactive and ^3H-SAM was added to initiate the reaction (final volume=51 μL). In all cases, the final concentrations were as follows: wild-type or mutant PRC2 enzyme was 4 nM, SAH in the minimum signal control wells was 1 mM and the DMSO concentration was 1%. The assays were stopped by the addition of non-radioactive SAM (10 μL) to a final concentration of 600 μM, which dilutes the ^3H-SAM to a level where its incorporation into the peptide substrate is no longer detectable. 50 μL of the reaction in the 384-well polypropylene plate was then transferred to a 384-well Flashplate and the biotinylated peptides were allowed to bind to the streptavidin surface for at least 1 h before being washed three times with 0.1% Tween20 in a Biotek ELx405 plate washer. The plates were then read in a PerkinElmer TopCount platereader to measure the quantity of ^3H-labeled peptide bound to the Flashplate surface, measured as disintegrations per minute (dpm) or alternatively, referred to as counts per minute (cpm).
Where dpm=disintegrations per minute, cmpd=signal in assay well, and min and max are the respective minimum and maximum signal controls.
Where top and bottom are the normally allowed to float, but may be fixed at 100 or 0 respectively in a 3-parameter fit. The Hill Coefficient normally allowed to float but may also be fixed at 1 in a 3-parameter fit. Y is the % inhibition and X is the compound concentration.

By pIC50 is commonly meant −log10 of the IC50, conventionally taken in molar units.

pIC50: −log10 of the molar value. Some results are limits rather than exact numbers.

T1 sequence (Q15910 whole entry Y641F): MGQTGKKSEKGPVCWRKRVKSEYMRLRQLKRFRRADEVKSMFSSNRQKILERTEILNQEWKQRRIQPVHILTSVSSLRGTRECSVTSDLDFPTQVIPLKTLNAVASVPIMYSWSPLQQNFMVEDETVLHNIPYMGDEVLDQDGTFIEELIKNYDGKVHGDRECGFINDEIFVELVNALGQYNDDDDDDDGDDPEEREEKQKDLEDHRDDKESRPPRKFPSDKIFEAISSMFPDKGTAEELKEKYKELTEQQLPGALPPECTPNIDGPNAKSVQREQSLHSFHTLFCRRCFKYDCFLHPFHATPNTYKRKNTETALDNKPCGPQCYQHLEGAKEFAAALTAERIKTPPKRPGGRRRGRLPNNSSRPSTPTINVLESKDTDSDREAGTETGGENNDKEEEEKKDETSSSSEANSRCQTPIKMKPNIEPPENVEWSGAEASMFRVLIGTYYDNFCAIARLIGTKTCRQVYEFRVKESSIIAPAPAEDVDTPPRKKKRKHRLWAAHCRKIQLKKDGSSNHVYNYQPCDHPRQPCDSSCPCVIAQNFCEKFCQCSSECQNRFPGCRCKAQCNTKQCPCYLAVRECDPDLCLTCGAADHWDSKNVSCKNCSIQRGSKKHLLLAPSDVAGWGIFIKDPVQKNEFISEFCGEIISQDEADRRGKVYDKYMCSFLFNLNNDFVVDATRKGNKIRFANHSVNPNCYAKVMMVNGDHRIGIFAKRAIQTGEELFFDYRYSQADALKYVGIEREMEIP
T1 sequence (O75530 whole entry partner): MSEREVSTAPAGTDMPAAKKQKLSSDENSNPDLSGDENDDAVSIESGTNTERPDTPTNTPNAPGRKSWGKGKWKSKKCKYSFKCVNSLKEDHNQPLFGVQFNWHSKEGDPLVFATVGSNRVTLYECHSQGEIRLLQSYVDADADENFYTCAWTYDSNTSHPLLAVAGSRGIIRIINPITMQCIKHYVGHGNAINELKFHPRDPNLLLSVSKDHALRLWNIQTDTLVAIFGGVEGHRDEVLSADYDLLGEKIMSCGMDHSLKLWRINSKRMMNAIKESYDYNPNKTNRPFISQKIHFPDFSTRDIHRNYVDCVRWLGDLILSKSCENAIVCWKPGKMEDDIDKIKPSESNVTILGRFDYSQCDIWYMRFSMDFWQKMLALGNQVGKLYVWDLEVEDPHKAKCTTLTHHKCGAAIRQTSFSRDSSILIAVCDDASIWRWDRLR
T1 sequence (Q15022 whole entry partner): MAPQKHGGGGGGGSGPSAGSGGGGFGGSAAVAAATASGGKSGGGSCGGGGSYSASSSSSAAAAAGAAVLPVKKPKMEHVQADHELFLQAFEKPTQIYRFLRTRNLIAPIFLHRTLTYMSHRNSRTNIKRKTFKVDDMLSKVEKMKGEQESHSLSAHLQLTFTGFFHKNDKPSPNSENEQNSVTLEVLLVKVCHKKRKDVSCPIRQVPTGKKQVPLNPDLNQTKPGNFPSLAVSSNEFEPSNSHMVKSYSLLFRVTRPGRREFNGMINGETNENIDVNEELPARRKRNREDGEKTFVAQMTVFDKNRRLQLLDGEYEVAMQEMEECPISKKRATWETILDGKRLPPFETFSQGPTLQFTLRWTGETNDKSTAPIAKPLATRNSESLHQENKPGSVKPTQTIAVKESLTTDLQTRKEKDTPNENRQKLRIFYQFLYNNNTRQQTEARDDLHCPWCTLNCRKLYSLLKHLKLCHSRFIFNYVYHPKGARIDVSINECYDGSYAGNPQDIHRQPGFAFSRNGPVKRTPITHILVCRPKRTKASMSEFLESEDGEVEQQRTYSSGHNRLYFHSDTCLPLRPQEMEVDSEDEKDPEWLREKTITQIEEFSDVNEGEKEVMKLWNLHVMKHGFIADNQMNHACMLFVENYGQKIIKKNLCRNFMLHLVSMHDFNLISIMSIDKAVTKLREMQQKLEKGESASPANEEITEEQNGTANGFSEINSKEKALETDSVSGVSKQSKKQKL
T1 sequence (Q09028 whole entry partner): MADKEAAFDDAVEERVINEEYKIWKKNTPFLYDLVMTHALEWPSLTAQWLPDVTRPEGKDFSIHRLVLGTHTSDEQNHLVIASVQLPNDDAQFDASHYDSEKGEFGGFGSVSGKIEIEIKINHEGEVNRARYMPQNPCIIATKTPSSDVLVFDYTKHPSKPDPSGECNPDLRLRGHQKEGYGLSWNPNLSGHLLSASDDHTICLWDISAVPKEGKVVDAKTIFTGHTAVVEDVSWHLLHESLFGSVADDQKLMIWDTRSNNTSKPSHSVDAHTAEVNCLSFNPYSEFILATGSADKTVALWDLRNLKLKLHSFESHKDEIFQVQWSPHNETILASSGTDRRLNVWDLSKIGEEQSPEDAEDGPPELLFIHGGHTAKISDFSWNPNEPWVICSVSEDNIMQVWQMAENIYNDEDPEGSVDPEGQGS

Regarding `CCN(c1cc(Cl)cc(C(=O)NCc2c(C)[nH]c(C)cc2=O)c1C)[C@H]1CC[C@H](N(C)C)CC1` [Compound 1, 5-chloro-N-((2,6-dimethyl-4-oxo-1,4-dihydropyridin-3-yl)methyl)-3-(((trans)-4-(dimethylamino)cyclohexyl)(ethyl)amino)-2-methylbenzamide], the values for the pIC50 (in the experiment on WSU-DLCL2 cells; in experiment [1]) were 4.77 and 7.40, respectively.

With `CCN(c1cc(Cl)cc(C(=O)NCc2c(C)n(C)c(C)cc2=O)c1C)[C@H]1CC[C@H](N(C)C)CC1` [Compound 86], the pIC50 is under 4.70 in the experiment with WSU-DLCL2 cells and under 4.30 in experiment [1].

On to `CCn1c(C)cc(=O)c(CNC(=O)c2cc(Cl)cc(N(CC)[C@H]3CC[C@H](N(C)C)CC3)c2C)c1C` [Compound 87], for which the negative-log IC50 (pIC50) in the experiment on WSU-DLCL2 cells was 5.52; in experiment [1], 4.43.

In the case of `CCN(c1cc(-c2ccc(COC)nc2)cc(C(=O)NCc2c(Cl)[nH]c(C)cc2=O)c1C)[C@H]1CC[C@H](N(C)C)CC1` [Compound 88], the pIC50 with WSU-DLCL2 cells is 5.29; in experiment [1], 7.34.

Take `CCN(c1cc(-c2cnn(C)c2)cc(C(=O)NCc2c(Cl)[nH]c(C)cc2=O)c1C)[C@H]1CC[C@H](N(C)C)CC1` [Compound 89]: the results for the pIC50 (with WSU-DLCL2 cells; in experiment [1]) were 4.94 and 6.64, respectively.

Regarding `CCN(c1cc(-c2ccc(C)nc2)cc(C(=O)NCc2c(Cl)[nH]c(C)cc2=O)c1C)[C@H]1CC[C@H](N(C)C)CC1` [Compound 90], the values for the negative logarithm of the IC50 (pIC50) (with WSU-DLCL2 cells; in experiment [1]) were 5.28 and 7.40, respectively.

Turning to `CCN(c1cc(-c2cnc(C)cn2)cc(C(=O)NCc2c(Cl)[nH]c(C)cc2=O)c1C)[C@H]1CC[C@H](N(C)C)CC1` [Compound 91], the pIC50 in the experiment with WSU-DLCL2 cells was 5.27; in experiment [1] it was 7.31.

Consider `CCN(c1cc(-c2ccc(OCCOC)cc2)cc(C(=O)NCc2c(Cl)[nH]c(C)cc2=O)c1C)[C@H]1CC[C@H](N(C)C)CC1` [Compound 92], for which the pIC50 in the experiment on WSU-DLCL2 cells is 5.36; in experiment [1], 7.64.

As for `CCN(c1cc(-c2ccc(OCCOC)cc2)cc(C(=O)NCc2c(C)[nH]c(C)cc2=O)c1C)[C@H]1CC[C@H](N(C)C)CC1` [Compound 93], the pIC50 was 5.92 in the experiment on WSU-DLCL2 cells and 8.30 in experiment [1].

For `CCCN(c1cc(-c2ccc(OCCOC)cc2)cc(C(=O)NCc2c(C)[nH]c(C)cc2=O)c1C)[C@H]1CC[C@H](N(C)C)CC1` [Compound 94], the pIC50 is 5.54 in the experiment on WSU-DLCL2 cells and 8.15 in experiment [1].

As for `CCN(c1cc(-c2ccc(OCCOC)cc2)cc(C(=O)NCc2c(C)[nH]c(C)cc2=O)c1C)[C@H]1CC[C@H](N(C)CCOC)CC1` [Compound 100], the pIC50 was 5.38 with WSU-DLCL2 cells and 7.74 in experiment [1].
